For assay [1], the target named is T1, ENPP-1 (Homo sapiens, UniProt P22413).
T1 construct: purchased Biovendor RD172124100
T1 sequence (P22413 1-925): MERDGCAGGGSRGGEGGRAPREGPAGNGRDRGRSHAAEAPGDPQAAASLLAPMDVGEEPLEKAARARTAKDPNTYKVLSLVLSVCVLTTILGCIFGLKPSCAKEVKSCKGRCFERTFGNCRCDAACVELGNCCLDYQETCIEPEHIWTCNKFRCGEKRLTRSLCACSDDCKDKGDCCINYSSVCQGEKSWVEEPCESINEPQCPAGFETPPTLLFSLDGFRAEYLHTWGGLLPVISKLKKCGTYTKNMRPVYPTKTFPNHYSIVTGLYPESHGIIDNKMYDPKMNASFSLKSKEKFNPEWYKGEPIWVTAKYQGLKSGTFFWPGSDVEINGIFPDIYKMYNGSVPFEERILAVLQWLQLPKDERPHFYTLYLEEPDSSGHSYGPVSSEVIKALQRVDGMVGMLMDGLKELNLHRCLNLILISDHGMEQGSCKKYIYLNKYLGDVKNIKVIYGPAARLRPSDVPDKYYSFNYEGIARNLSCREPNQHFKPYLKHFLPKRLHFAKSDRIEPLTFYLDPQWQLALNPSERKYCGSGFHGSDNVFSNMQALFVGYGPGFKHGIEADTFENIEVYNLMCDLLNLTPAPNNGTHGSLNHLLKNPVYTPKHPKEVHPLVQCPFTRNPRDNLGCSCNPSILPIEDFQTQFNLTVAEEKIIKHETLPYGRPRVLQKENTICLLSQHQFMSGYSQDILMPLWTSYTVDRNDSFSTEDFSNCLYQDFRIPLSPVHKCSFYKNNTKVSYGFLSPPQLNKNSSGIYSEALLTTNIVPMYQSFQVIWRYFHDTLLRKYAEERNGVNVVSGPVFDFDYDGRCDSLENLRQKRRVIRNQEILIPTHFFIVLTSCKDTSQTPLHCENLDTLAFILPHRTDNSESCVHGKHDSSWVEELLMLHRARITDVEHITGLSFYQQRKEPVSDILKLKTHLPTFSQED
Put plainly: ENPP-1 enzyme assay with pNP-TMP substrate. The class given is biochemical. Particulars: 12.5 ng ENPP-1, 720 μM substrate pNP-TMP, pH 9.0, 37° C., 60 minutes, absorbance 405 nm; average IC50.

Assay [2] has as its target T1, ENPP-1. Put plainly: ENPP-1 enzyme assay with cGAMP substrate. In kind it is biochemical. Particulars: 200 pM ENPP-1, 10 μM substrate 2′3′-cGAMP, pH 7.4, 37° C., 30 minutes, Transcreener AMP2/GMP2 kit; average IC50.

Bounds are passed on as bounds.

`COc1ccc2c(c1)c1ncccc1n2Cc1ccc(C(F)(F)P(=O)(O)O)cc1` [Compound 58, (difluoro (4-((8-methoxy-5H-pyrido[3,2-b]indol-5-yl)methyl)phenyl)methyl)phosphonic acid]: the 50% inhibitory concentration (IC50) on ENPP-1 [1] was under 1000 nM; on ENPP-1 [2] it was 1000 to 10000 nM.

Take `COc1ccc2c3c(=O)[nH]ncc3n(Cc3ccc(S(C)(=N)=O)cc3)c2c1` (centres unmarked) [Compound 46, 7-methoxy-5-(4-(S-methylsulfonimidoyl)benzyl)-2,5-dihydro-1H-pyridazino[4,5-b]indol-1-one]: the IC50 against ENPP-1 [1] and against ENPP-1 [2] was under 1000 nM in each case.

Consider `COc1ccc2c(c1)c1c(n2Cc2ccc(S(N)(=O)=O)cc2)CCNC1=O` [Compound 41, 4-((8-methoxy-1-oxo-1,2,3,4-tetrahydro-5H-pyrido[4,3-b]indol-5-yl)methyl)benzene sulfonamide], for which the IC50 at ENPP-1 [1] is under 1000 nM; on ENPP-1 [2], 1000 to 10000 nM.

With `COc1ccc2c(c1)c1c(n2Cc2ccc(S(N)(=O)=O)cc2)CCNC1` [Compound 36, 4-((8-methoxy-1,2,3,4-tetrahydro-5H-pyrido[4,3-b]indol-5-yl)methyl)benzenesulfonamide], the IC50 at ENPP-1 [1] was 1000 to 10000 nM; against ENPP-1 [2], over 10000 nM.

The record behind these values is US20250367173A1, “ECTONUCLEOTIDE PYROPHOSPHATASE-PHOSPHODIESTERASE-1 INHIBITORS AND PHARMACEUTICAL COMPOSITIONS COMPRISING THE SAME” (LigaChem Biosciences Inc., priority 2022, published 2025).
